Data: article PMC9784828, “Antimicrobial Activity of Peptide-Coupled Antisense Peptide Nucleic Acids in Streptococcus pneumoniae” (Microbiology Spectrum, 2022)

What was measured:
rpoB mRNA = experiment: RT-qPCR, relative expression of rpoB; type: cell-based, Streptococcus pneumoniae; conditions: TIGR4; 10 μM CPP-anti-rpoB PNA; 6 h; normalised to 5S rRNA; n = 3
Experimental: (§1) We investigated the influence of treatment with CPP-conjugated antisense PNAs on the amount of target gene mRNA in S. pneumoniae using reverse transcription-quantitative PCR (RT-qPCR) (Fig. 3). S. pneumoniae strain TIGR4 was treated with a sublethal dose (log CFU reduction of <2) of CPP-PNA conjugates. Transcript abundance of the 5S rRNA gene was used for normalization ([27]). Target gene mRNA levels in mock-treated bacteria served as controls. Treatment with 7.5 μM CPP-anti-gyrA PNAs and 10 μM CPP-anti-rpoB PNAs led to significant reductions in the respective target gene transcripts compared to the untreated control sample (Fig. 3).
(§2) For RNA isolation, 450 μL bacterial suspension (10^5 CFU/mL in BHI) was prepared for each experimental condition, treated with CPP-PNA conjugates as indicated, and incubated in a 2-mL reaction tube for 6 h at 37°C and 7 rpm (Rotor SB3; Stuart, Staffordshire, United Kingdom). Subsequently, five samples per condition were pooled. […]
(§3) cDNA synthesis was performed using the Superscript First-Strand Synthesis system for RT-qPCR (Invitrogen, Thermo Fisher Scientific, Darmstadt, Germany). Quantitative PCR amplification was conducted with SYBR Green (Thermo Fisher Scientific) using the LightCycler 480 real-time PCR system (Roche Diagnostics GmbH, Mannheim, Germany). […] Relative expression was calculated using the 2^–ΔΔ^CT method ([27]). […]

[1] = tested on: ply (pneumolysin) transcript; experiment: RT-qPCR, relative expression of virulence gene ply; type: cell-based, Streptococcus pneumoniae; conditions: TIGR4; 10 μM CPP-anti-rpoB PNA; normalised to 5S rRNA; n = 3
Experimental: (§4) Because the product of rpoB is the β-subunit of the bacterial RNA-polymerase, which is responsible for RNA synthesis, downregulation of rpoB by treatment with antisense PNAs is expected to affect gene expression. Therefore, we tested the relative expression of two virulence factor genes following treatment with 10 μM CPP-anti-rpoB PNAs compared to expression in the mock-treated control as an example (Fig. 3C and D).
as §2, with “pooled. Bacteria were pelleted immediately, shock-frozen in liquid nitrogen, and stored at −80°C until use. Total RNA was extracted according to the protocol published by Li-Korotky et al. ([46]).” for “pooled.”
as §3

[2] = tested on: pspA (pneumococcal surface protein A) transcript; experiment: RT-qPCR, relative expression of virulence gene pspA; type: cell-based, Streptococcus pneumoniae; conditions: TIGR4; 10 μM CPP-anti-rpoB PNA; normalised to 5S rRNA; n = 3
Experimental: as §4
as §2, with “pooled. Bacteria were pelleted immediately, shock-frozen in liquid nitrogen, and stored at −80°C until use. Total RNA was extracted according to the protocol published by Li-Korotky et al. ([46]).” for “pooled.”
as §3

S. pneumoniae TIGR4 = experiment: In vitro time-killing assay (killing kinetics); type: cell-based, Streptococcus pneumoniae; conditions: 10 μM, n = 3
Experimental: The antimicrobial activity kinetics of TAT- and (RXR)4XB-conjugated anti-gyrA PNA constructs in S. pneumoniae TIGR4 were studied using an in vitro time-killing assay. Bacteria were treated with 10 μM CPP-antisense PNAs or scrambled control PNAs (Fig. 2). Samples were collected every 2 h following antisense treatment. CFU/mL was determined by plating of serial dilutions and plotted over time. […] In contrast, (RXR)4XB-conjugated anti-gyrA PNA treatment led to a continuous reduction in S. pneumoniae CFU until complete eradication after 12 h.
For monitoring of killing kinetics, samples were collected 2 to 12 h post-treatment. Viable cell counts were determined by plating appropriate dilutions on BHI agar plates. CFU were determined by visual inspection following overnight incubation at 37°C under a 5% CO2 atmosphere. At time point 0, the viable cell count corresponded to 1 × 10^5 to 3 × 10^5 CFU/mL.

gyrA mRNA = experiment: RT-qPCR, relative expression of gyrA; type: cell-based, Streptococcus pneumoniae; conditions: TIGR4; 7.5 μM CPP-anti-gyrA PNA; 6 h; normalised to 5S rRNA; 2^–ΔΔCT; n = 3
Experimental: as §1, §2, §3

[3] = tested on: G. mellonella larvae infected with S. pneumoniae TIGR4; experiment: G. mellonella infection model, bacterial load; type: in vivo, Galleria mellonella; conditions: 10 nmol CPP-PNA/larva; 24 h postinfection; n = 4 larvae per group, three experiments
Experimental: To establish the antibacterial effect of PNAs in the invertebrate infection model, we assessed the bacterial loads in infected larvae (Fig. 6). Larvae were infected and subsequently treated with NaCl (mock), 10 nmol CPP-PNA, or levofloxacin (positive control), respectively. From each group, four larvae were homogenized at 24 h postinfection. CFU/larva were determined following serial dilutions of the suspension and plating on selective medium. Treatment with (RXR)4XB-anti-gyrA caused a log CFU reduction of 1 compared to that in the mock-treated larvae. The addition of 1 or 10 μg levofloxacin led to a log CFU reduction of 2 or 6, respectively.
For determination of bacterial load, larvae were infected and subsequently treated with NaCl (mock), CPP-PNAs, or levofloxacin (positive control). At 24 h after infection, larvae were homogenized. Following serial dilution, the suspension was plated on selective medium (BD Columbia CNA Agar with 5% sheep blood; Becton Dickinson GmbH, Heidelberg, Germany). Agar plates were incubated overnight at 37°C, 5% CO2. CFU/larva was determined by visual inspection. Colony identity was verified on a random basis by colony PCR using ply-specific primers.

Substance	rpoB transcript level relative to mock-treated control (rpoB mRNA)	Expression of ply relative to mock-treated control [1]	Expression of pspA relative to mock-treated control [2]	Time to complete eradication of S. pneumoniae CFU (S. pneumoniae TIGR4)	gyrA mRNA level relative to mock-treated control (gyrA mRNA)	log CFU reduction of bacterial load compared to mock-treated larvae [3]
GRKKRRQRRRYK-eg-ctgccaagatga [TAT-anti-rpoB PNA, HIV-1 TAT (48–57) peptide coupled to antisense PNA against S. pneumoniae rpoB]	45%	45%	57%	–	–	–
RXRRXRRXRRXRXB-eg-tgcattaata [(RXR)4XB-anti-gyrA PNA, (RXR)4XB peptide coupled to antisense PNA against gyrA]	–	–	–	12 h	45%	1
RXRRXRRXRRXRXB-eg-ctgccaagatga [(RXR)4XB-anti-rpoB PNA, (RXR)4XB peptide coupled to antisense PNA against rpoB]	51%	56%	no significant reduction	–	–	–
